Minimal effective concentration data for 13 molecules are collected here from US8778964B2, “Hydroxy-substituted imidazo[1,2-a]-pyridinecarboxamides and their use” (Bayer Pharma Aktiengesellschaft, priority 2012, dated 2014).

Broadly, the minimal effective concentration is the smallest amount tested that counted as effective.

Counter-ions that a name gives are not always drawn.

The assay has as its system recombinant guanylate cyclase reporter cell line. Briefly: Action on recombinant guanylate cyclase reporter cell line (MEC). It is filed as cell-based. As to conditions: in some cases mean values obtained from individual determinations. The procedure: B-2. Action on Recombinant Guanylate Cyclase Reporter Cell Line
The cellular action of the compounds according to the invention is determined on a recombinant guanylate cyclase reporter cell line, as described in F. Wunder et al., Anal. Biochem. 339, 104-112 (2005).
Representative values (MEC=minimal effective concentration) for the compounds according to the invention are shown in the following table (in some cases as mean values obtained from individual determinations): […]
With `CCCC[C@H](CO)NC(=O)c1c(C2CC2)nc2c(OCc3c(F)cccc3F)cccn12` [Example 134, 2-cyclopropyl-8-[(2,6-difluorobenzyl)oxy]-N-[(2R)-1-hydroxyhexan-2-yl]imidazo[1,2-a]-pyridine-3-carboxamide], the minimal effective concentration amounted to 0.3 µM.

Consider `Cc1nc2c(OCC3CCCCC3)cccn2c1C(=O)NC(C)(C)C(C)O` (stereo not shown) [Example 87, 8-(cyclohexylmethoxy)-N-(3-hydroxy-2-methylbutan-2-yl)-2-methylimidazo[1,2-a]pyridine-3-carboxamide], for which the minimal effective concentration was found to be 1 µM.

`Cc1nc2c(OCc3c(F)cccc3F)cccn2c1C(=O)NC(CCCC(F)(F)F)C(C)(C)O` (single isomer, unassigned; ent-8) [Example 156, ent-8-[(2,6-Difluorobenzyl)oxy]-2-methyl-N-(7,7,7-trifluoro-2-hydroxy-2-methylheptan-3-yl)-imidazo[1,2-a]pyridine-3-carboxamide (enantiomer B)]: the minimal effective concentration stood at 0.03 µM.

Take `Cc1nc2c(OCc3c(F)cccc3F)cccn2c1C(=O)NCC(O)COc1ccccc1` (stereo not shown) [Example 137, 8-[(2,6-difluorobenzyl)oxy]-N-(2-hydroxy-3-phenoxypropyl)-2-methylimidazo[1,2-a]-pyridine-3-carboxamide]: the minimal effective concentration came out at 3 µM.

As for `CCCC[C@H](CO)NC(=O)c1c(C)nc2c(OCc3ccccc3)cccn12` [Example 16, 8-(Benzyloxy)-N-[(2R)-1-hydroxyhexan-2-yl]-2-methylimidazo[1,2-a]pyridine-3-carboxamide], the minimal effective concentration is 1 µM.

Consider `Cc1nc2c(OCc3cccc(Cl)c3Cl)cccn2c1C(=O)NC(CO)CO` [Example 49, 8-[(2,3-dichlorobenzyl)oxy]-N-(1,3-dihydroxypropan-2-yl)-2-methylimidazo[1,2-a]-pyridine-3-carboxamide], for which the minimal effective concentration was found to be 2 µM.

In the case of `Cc1nc2c(OCc3c(F)cccc3F)cccn2c1C(=O)NCC(C)(C)CO` [Example 41, 8-[(2,6-difluorobenzyl)oxy]-N-(3-hydroxy-2,2-dimethylpropyl)-2-methylimidazo[1,2-a]-pyridine-3-carboxamide], the minimal effective concentration was 3 µM.

Turning to `Cc1nc2c(OCC3CCCCC3)cccn2c1C(=O)NC(CO)CO` [Example 85, 8-(cyclohexylmethoxy)-N-(1,3-dihydroxypropan-2-yl)-2-methylimidazo[1,2-a]pyridine-3-carboxamide], the minimal effective concentration amounted to 0.38 µM.

In the case of `CC[C@H](CO)NC(=O)c1c(C)nc2c(OCC3CCCCC3)cccn12` [Example 72, 8-(cyclohexylmethoxy)-N-[(2R)-1-hydroxybutan-2-yl]-2-methylimidazo[1,2-a]pyridine-3-carboxamide], the minimal effective concentration worked out at 0.1 µM.

Consider `CCCOCC(CO)NC(=O)c1c(C)nc2c(OCc3c(F)cccc3F)cccn12` (racemic) [Example 162, rac-8-[(2,6-Difluorobenzyl)oxy]-N-(1-hydroxy-3-propoxypropan-2-yl)-2-methylimidazo[1,2-a]-pyridine-3-carboxamide], for which the minimal effective concentration amounted to 0.3 µM.

On to `Cc1nc2c(OCc3ccccc3)cccn2c1C(=O)N[C@@H](C)CO` [Example 46, 8-(Benzyloxy)-N-[(2S)-1-hydroxypropan-2-yl]-2-methylimidazo[1,2-a]pyridine-3-carboxamide], for which the minimal effective concentration is 3 µM.

In the case of `Cc1nc2c(OCc3c(F)cccc3F)cccn2c1C(=O)N[C@@H](CO)CC[C@@H](O)C(F)(F)F` [Example 135, 8-[(2,6-difluorobenzyl)oxy]-2-methyl-N-[(2R, 5R)-6,6,6-trifluoro-1,5-dihydroxyhexan-2-yl]imidazo[1,2-a]pyridine-3-carboxamide trifluoroacetate (1:1)], the minimal effective concentration amounted to 0.1 µM.

Take `Cc1nc2c(OCC3CCCCC3)cccn2c1C(=O)N[C@H](CO)CC(C)C` [Example 95, 8-(cyclohexylmethoxy)-N-[(2S)-1-hydroxy-4-methylpentan-2-yl]-2-methylimidazo[1,2-a]pyridine-3-carboxamide]: the minimal effective concentration was 3 µM.
